Consider three compounds from patent US12084422B2, “Phenyl-n-quinoline derivatives for treating a RNA virus infection” (ABIVAX, priority 2018, dated 2024).

The assay has as its system RSV A2. The experiment in a line: Screening for RSV inhibition using Viral ToxGlo assay in HEp-2 cells. It counts as cell-based. The following applies: human respiratory syncytial virus, HEp-2, 72 h. The procedure:
Protocol for Screening Antiviral Compounds for RSV Inhibition and Cytotoxicity Using Viral ToxGlo Assay
HEp-2 cells were maintained in Eagle's minimum essential medium (EMEM) with Earle's BSS adjusted to contain 2 mM L-glutamine, 10% fetal bovine serum, 100 U/ml penicillin and 100 μg/ml streptomycin. For the purposes of the screening assay they were grown to 90% confluency, trypsinized and recovered. The trypsin was neutralised with cell culture media and cells were centrifuged at 150×g for 5 minutes before discarding the supernatant and resuspending cell pellet in assay media (EMEM with Earle's BSS adjusted to contain 2 mM L-glutamine, 2% fetal bovine serum and 100 U/ml penicillin and 100 μg/ml streptomycin). The cells were seeded into white clear-bottomed cell culture plates at a density of 1.5×10^4 cells/well in 50 μl and 4×10^3 cells/well in 25 μl for 96 well plates and 384 well plates respectively. For the media/background control column assay media only was added. Cell plates were placed in a humid chamber and incubated overnight at 37° C./5% CO2. After overnight incubation cells were checked for confluency and healthy appearance.
Test articles were made up at 10× test concentration in a maximum DMSO concentration of 10% (final assay concentration maximal 1% DMSO) and added to the cell plates in volumes of 10 μl for 96 well plates and 5 μl for 384 well plates. For cell control and virus control wells the test article solvent only was added. Virus or assay media for cytotoxicity test wells and media/cell control wells was added immediately after test articles at an MOI of 0.5, 40 or 20 μl for 96 and 384 well plates respectively. Virus suspension was prepared by thawing RSV A2 frozen stocks and diluting to the required concentration of plaque forming units in assay media on ice.
Cell plates were further incubated inside a humid chamber for 72 h p.i at 37° C./5% CO2. After the incubation period cells were observed under the microscope to check for characteristic cytopathic effect in virus control wells and healthy cells in the cell control wells. After plates were adjusted to room temperature 20/40 μl Viral ToxGlo (Promega) was added to each well of the 384/96 well cell plates. Plates were incubated at room temperature, protected from light on a plate rocker for 20 minutes before measuring the luminescence on a spectrophotometer (Biotek Synergy HTX).
RSV inhibition was calculated as percentage of cytopathic effect inhibition relative to the virus control and cytotoxicity as percentage of cell survival relative to cell control wells. This allowed EC50 values to be calculated for each test article where a virus inhibition or cytotoxic dose response was identified. EC50 values ranging between 0.001 µM and 5 μM could thus be determined for compounds 1, 6, 10, 13, 28, 38, 43, 47, 48, 49, 50, 51, 52, 53, 54, 55, 56 and 57.
For the compound `Cc1cc(OC(C)C)ccc1Nc1ccc2cccc(Cl)c2n1` [Compound 10, 8-chloro-N-(4-isopropoxy-2-methylphenyl)quinolin-2-amine], the EC50 is 585 nM.
With `CCc1cc(OC(C)C)ccc1Nc1ccc2cccc(Cl)c2n1` [Compound 13, 8-chloro-N-(2-ethyl-4-isopropoxyphenyl)quinolin-2-amine], the concentration for a half-maximal effect (EC50) turned out to be 1180 nM.
Consider `Cc1cc(OC(C)C)c(C)cc1Nc1ccc2cccc(Cl)c2n1` [Compound 43, 8-chloro-N-(4-isopropoxy-2,5-dimethylphenyl)quinolin-2-amine], for which the EC50 was found to be 348 nM.
